{"source": "patent US10364263B2", "about": "“Cyclic phosphates and cyclic phosphoramidates for the treatment of neurologic disorders” (Retrophin, Inc., priority 2015, dated 2019)"}
{"test_system": "PANK2 silenced human neuroblastoma IMR32 cells (PANK2−/−)", "test": "Coenzyme A assay in PANK2 silenced cells (LC-MS quantification of free CoA)", "type": "cell-based", "conditions": "compound added twice (24 h + 24 h), relative to 0.1% DMSO controls", "procedure": "A human neuroblastoma IMR32 cell line (ATCC) with stably PANK2 silencing was obtained by lentiviral-delivered small hairpin RNA and cultured in MEM (Invitrogen) supplemented with 10% fetal bovine serum, 2 mM glutamine, 1% penicillin-streptomycin, 1 mM sodium pyruvate, 1 mM non essential amino acids and 1.5 g/l sodium bicarbonate.\nFor lentiviral shRNA expression, Human Emryonic Kidney HEK-293T cells (ATCC) were transfected with the appropriate pGFP-Lenti-shRNA constructs and packaging plasmids according to manufacturer's protocol (Origene Technologies, Inc.). Four different gene-specific shRNA expression vectors designed against multiple splice variants of PANK2 (Gene ID 80025) were used for transfection. A non-silencing shRNA construct (scrambled shRNA) and an empty vector expressing GFP alone were used as negative controls. The GFP tag subcloned into the lentiviral vectors was used to monitor the transfection efficiency.\nIMR32 cells were plated on 150 cm dishes 48 h before transduction with lentiviral particles.\nThree days after transduction medium was removed and replaced with fresh medium containing […] puromycin. Medium was replaced every 48 h. Levels of PANK2 expression on selected clones was assessed by Western Blot analysis.\nTo quantify CoA, PANK2^−/− IMR32 cells were plated on 12-well culture plates (Corning) at a density of 0.2×10^6 cells per well. After 72 h, compounds were freshly dissolved in DMSO and added to the culture medium to yield a final solvent concentration of 0.1% (v/v). Controls with medium containing 0.1% DMSO without test compounds were also included in each plate. Compound treated cells were incubated for 24 h at 37° C. Treatment was repeated after 24 h with newly dissolved compound and cells were further incubated at 37° C. for additional 24 h. Before LC-MS analysis of CoA levels, cells were harvested, counted, and collected in a 15 ml falcon tube and centrifuged at 200×g for 5 min at 4° C. Supernatant was removed and cell pellet was washed in 10 ml of ice-cold PBS. To further confirm that the numbers of cells in each sample were equivalent, an equal fraction of pellet was collected from each sample and subjected to protein determination analysis. After centrifugation and supernatant removal, the cell pellet was rapidly frozen in Liquid Nitrogen and stored at −80° C. until analysis.\nIntracellular CoA levels were calculated considering an intracellular volume of 1 million cells=2 μl.\nThe 1×10^6 cellular pellet was extracted with 120 μl of aqueous 20% TFA. This solution was stirred for 2 min, sonicated in ultrasonic bath for 2 min, then stirred again for 1 min, and centrifuged for 15 min at 14000 g and at 4° C.\n100 μL samples of supernatant were dried under N2 at 20° C. in the dark.\nSamples were re-dissolved in 100 μl of 10 mM NH4^+ AcO^− buffer pH 5.1+IS (Dextrorphan 50 ng/ml), stirred for 2 min, sonicated in ultrasonic bath for 1 min, then stirred again for 1 min, and injected into LC-MS.\nLC-MS/MS was performed using an Agilent HPLC (1100 Series, USA). The LC system was interfaced with an API-4000 Q-Trap triple quadrupole mass spectrometer (AB Sciex, Toronto, Canada) equipped with a TurbolonSpray ionization source operating in positive ion mode. Analyst™ software version 1.6 (AB Sciex, Toronto, Canada) was used for data acquisition and processing. CoA was separated using a Luna C18 column (2.0×50 mm; 5 μm particle size), column at 25° C. and flow rate of 0.2 ml/min. Injection volume was 15 μl. The mobile phases consisted of water containing 10 mM ammonium acetate pH 7 (mobile phase A) and MeCN-2-propanol 9:1 (mobile phase B). Elution was performed using a gradient starting at 2% B, holding at 2% B until 0.1 min, increasing to 98% B at 3.2 min, holding at 98% B until 4.5 min, returning to 2% B at 4.6 min and holding at 2% B until 7.5 min. Precursor ions and MRM transitions used were: CoA m/z 768.1→261.6 and 768.1→136.1. […]", "units": {"PANK2−/− CoA (Fold Increase): fold increase in Coenzyme A (CoA) levels relative to controls": "Fold Increase"}}
{"smiles": "COC(=O)CCNC(=O)[C@@H]1O[P@](=O)(OCOC(=O)N[C@@H](CSC(=O)C(C)(C)C)C(=O)OCc2ccccc2)OCC1(C)C", "note": "[2-206, benzyl N-(((((2R,4R)-4-((3-methoxy-3-oxopropyl)carbamoyl)-5,5-dimethyl-2-oxido-1,3,2-dioxaphosphinan-2-yl)oxy)methoxy)carbonyl)-S-pivaloyl-L-cysteinate]", "PANK2−/− CoA (Fold Increase): fold increase in Coenzyme A (CoA) levels relative to controls": 64.41}
{"smiles": "CCOC(=O)[C@H](Cc1ccccc1)NC(=O)OCOP1(=O)OCC(C)(C)[C@H](C(=O)NCCC(=O)OC)O1", "note": "(stereo partly drawn) [2-137, ethyl (((((4R)-4-((3-methoxy-3-oxopropyl)carbamoyl)-5,5-dimethyl-2-oxido-1,3,2-dioxaphosphinan-2-yl)oxy)methoxy)carbonyl)-L-phenylalaninate]", "PANK2−/− CoA (Fold Increase): fold increase in Coenzyme A (CoA) levels relative to controls": 1.1}
{"smiles": "COC(=O)CCNC(=O)[C@@H]1OP(=O)(OCOC(=O)[C@H]2COC(=O)N2C(=O)OC(C)(C)C)OCC1(C)C", "note": "(stereo partly drawn) [2-196, 3-(tert-butyl) 4-((((4R)-4-((3-methoxy-3-oxopropyl)carbamoyl)-5,5-dimethyl-2-oxido-1,3,2-dioxaphosphinan-2-yl)oxy)methyl) (4R)-2-oxooxazolidine-3,4-dicarboxylate]", "PANK2−/− CoA (Fold Increase): fold increase in Coenzyme A (CoA) levels relative to controls": 1.97}
{"smiles": "CC(C)OC(=O)OCOP1(=O)OCC(C)(C)[C@H](C(=O)NCCC(=O)O)O1", "note": "(stereo partly drawn) [Compound No. 104, 3-((4R)-2-(((isopropoxycarbonyl)oxy)methoxy)-5,5-dimethyl-2-oxido-1,3,2-dioxaphosphinane-4-carboxamido)propanoic acid]", "PANK2−/− CoA (Fold Increase): fold increase in Coenzyme A (CoA) levels relative to controls": 75.24}
{"smiles": "COC(=O)CCNC(=O)[C@@H]1O[P@@](=O)(OCOC(=O)c2ccnn2C)OCC1(C)C", "note": "[2-184, (((2S,4R)-4-((3-methoxy-3-oxopropyl)carbamoyl)-5,5-dimethyl-2-oxido-1,3,2-dioxaphosphinan-2-yl)oxy)methyl 1-methyl-1H-pyrazole-5-carboxylate]", "PANK2−/− CoA (Fold Increase): fold increase in Coenzyme A (CoA) levels relative to controls": 21.67}
{"smiles": "COC(=O)CCNC(=O)[C@@H]1O[P@](=O)(Oc2ccc([N+](=O)[O-])cc2)OCC1(C)C", "note": "(single isomer, unassigned) [Compound No. 2-120]", "PANK2−/− CoA (Fold Increase): fold increase in Coenzyme A (CoA) levels relative to controls": 21.05}
{"smiles": "COC(=O)CCNC(=O)[C@@H]1O[P@](=O)(Oc2ccccc2C(=O)OC)OCC1(C)C", "note": "[2-166]", "PANK2−/− CoA (Fold Increase): fold increase in Coenzyme A (CoA) levels relative to controls": 3.61}
{"smiles": "COC(=O)CCNC(=O)[C@@H]1O[P@@](=O)(N[C@@H](C)C(=O)OC)OCC1(C)C", "note": "[1-52, methyl 3-((2R,4R)-2-(((S)-1-methoxy-1-oxopropan-2-yl)amino)-5,5-dimethyl-2-oxido-3,3,2-dioxaphosphinane-4-carboxamido)propanoate]", "PANK2−/− CoA (Fold Increase): fold increase in Coenzyme A (CoA) levels relative to controls": 2.09}
{"smiles": "COC(=O)CCNC(=O)[C@@H]1O[P@](=O)(OCOC(=O)N[C@@H](CSC(=O)C(C)(C)C)C(=O)O)OCC1(C)C", "note": "[2-201, N-(((((2R,4R)-4-((3-methoxy-3-oxopropyl)carbamoyl)-5,5-dimethyl-2-oxido-1,3,2-dioxaphosphinan-2-yl)oxy)methoxy)carbonyl)-S-pivaloyl-L-cysteine]", "PANK2−/− CoA (Fold Increase): fold increase in Coenzyme A (CoA) levels relative to controls": 0.92}
{"smiles": "COC(=O)CCNC(=O)[C@@H]1OP(=O)(OCOC(=O)NCCOC(C)=O)OCC1(C)C", "note": "(stereo partly drawn) [2-168, methyl 3-((4R)-2-((((2-acetoxyethyl)carbamoyl)oxy)methoxy)-5,5-dimethyl-2-oxido-1,3,2-dioxaphosphinane-4-carboxamido)propanoate]", "PANK2−/− CoA (Fold Increase): fold increase in Coenzyme A (CoA) levels relative to controls": 2.69}
{"smiles": "COC(=O)CCNC(=O)[C@@H]1O[P@](=O)(OCOC(=O)c2sncc2C)OCC1(C)C", "note": "[2-177, (((2R,4R)-4-((3-methoxy-3-oxopropyl)carbamoyl)-5,5-dimethyl-2-oxido-1,3,2-dioxaphosphinan-2-yl)oxy)methyl 4-methylisothiazole-5-carboxylate]", "PANK2−/− CoA (Fold Increase): fold increase in Coenzyme A (CoA) levels relative to controls": 77.18}
{"smiles": "COC(=O)CCNC(=O)[C@@H]1OP(=O)(OCOC(=O)NCCOC(=O)[C@@H](NC(=O)OCc2ccccc2)C(C)C)OCC1(C)C", "note": "(stereo partly drawn) [2-181, 2-((((((4R)-4-((3-methoxy-3-oxopropyl)carbamoyl)-5,5-dimethyl-2-oxido-1,3,2-dioxaphosphuian-2-yl)oxy)methoxy)carbonyl)amino) ethyl((benzyloxy)carbonyl)-L-valinate]", "PANK2−/− CoA (Fold Increase): fold increase in Coenzyme A (CoA) levels relative to controls": 49.59}
{"smiles": "COC(=O)CCNC(=O)[C@@H]1OP(=O)(OCOC(=O)NC(C)(C)COC(=O)C(C)(C)C)OCC1(C)C", "note": "(stereo partly drawn) [2-167, 2-((((((4R)-4-((3-methoxy-3-oxopropyl)carbamoyl)-5,5-dimethyl-2-oxido-1,3,2-dioxaphosphinan-2-yl)oxy)methoxy)carbonyl)amino)-2-methylpropyl pivalate]", "PANK2−/− CoA (Fold Increase): fold increase in Coenzyme A (CoA) levels relative to controls": 3.26}
{"smiles": "COC(=O)CCNC(=O)[C@@H]1O[P@](=O)(Oc2ccc(C(F)(F)F)nc2)OCC1(C)C", "note": "[2-198, methyl 3-((2R,4R)-5,5-dimethyl-2-oxido-2-((6-(trifluoromethyl)pyridin-3-yl)oxy)-1,3,2-dioxaphosphinane-4-carboxamido)propanoate]", "PANK2−/− CoA (Fold Increase): fold increase in Coenzyme A (CoA) levels relative to controls": 13.6}
{"smiles": "COC(=O)CCNC(=O)[C@@H]1OP(=O)(OCCN2CCOCC2=O)OCC1(C)C", "note": "(stereo partly drawn) [2-114, methyl 3-((4R)-5,5-dimethyl-2-oxido-2-(2-(3-oxomorpholino)ethoxy)-1,3,2-dioxaphosphinane-4-carboxamido)propanoate]", "PANK2−/− CoA (Fold Increase): fold increase in Coenzyme A (CoA) levels relative to controls": 1.87}
{"smiles": "COC(=O)CCNC(=O)[C@@H]1OP(=O)(OCOC(=O)c2scnc2C(C)(C)C)OCC1(C)C", "note": "(stereo partly drawn) [2-173, (((4R)-4-((3-methoxy-3-oxopropyl)carbamoyl)-5,5-dimethyl-2-oxido-1,3,2-dioxaphosphinan-2-yl)oxy)methyl 4-(tert-butyl)thiazole-5-carboxylate]", "PANK2−/− CoA (Fold Increase): fold increase in Coenzyme A (CoA) levels relative to controls": 2.57}
{"smiles": "CC(C)(C)C(=O)OCOP1(=O)OCC(C)(C)[C@H](C(=O)NCCC(=O)OCc2ccncc2)O1", "note": "(stereo partly drawn) [Compound No. 101, (((4R)-5,5-dimethyl-2-oxido-4-((3-oxo-3-(pyridin-4-ylmethoxy)propyl)carbamoyl)-1,3,2-dioxaphosphinan-2-yl)oxy)methyl pivalate]", "PANK2−/− CoA (Fold Increase): fold increase in Coenzyme A (CoA) levels relative to controls": 81.66}
{"smiles": "COC(=O)CCNC(=O)[C@@H]1OP(=O)(OCOC(=O)c2cnco2)OCC1(C)C", "note": "(stereo partly drawn) [Compound No. 87, (((4R)-4-((3-methoxy-3-oxopropyl)carbamoyl)-5,5-dimethyl-2-oxido-1,3,2-dioxaphosphinan-2-yl)oxy)methyl oxazole-5-carboxylate]", "PANK2−/− CoA (Fold Increase): fold increase in Coenzyme A (CoA) levels relative to controls": 58.7}
{"smiles": "COC(=O)[C@H](C)N[P@@]1(=O)OCC(C)(C)[C@H](C(=O)NCCC(=O)OCc2ccncc2)O1", "note": "(single isomer, unassigned) [compound 18, methyl ((2R,4R)-5,5-dimethyl-2-oxido-4-((3-oxo-3-(pyridin-4-ylmethoxy)propyl)carbamoyl)-1,3,2-dioxaphosphinan-2-yl)-L-alaninate or methyl ((2S,4R)-5,5-dimethyl-2-oxido-4-((3-oxo-3-(pyridin-4-ylmethoxy)propyl)carbamoyl)-1,3,2-dioxaphosphinan-2-yl)-L-alaninate]", "PANK2−/− CoA (Fold Increase): fold increase in Coenzyme A (CoA) levels relative to controls": 2.06}
